Measurements: patent US9975853B2, “Tetrahydroisoquinolinone derivatives and their use in the inhibition of the HSP70 protein” (Julius-Maximilians-Universitaet Wuerzburg, priority 2014, dated 2018)

Columns and labels:
INA-6 = assay: Cell viability assay (annexin V-FITC/propidium iodide, flow cytometry) in INA-6 multiple myeloma cells; assay type: cell-based, human
Protocol: The effect of pharmacological Hsp70 inhibition on cell viability was analyzed after 72 hours of treatment in both non-malignant (mononuclear cells from the peripheral blood) and malignant lymphocytes (multiple myeloma cells). The mononuclear cells were separated from the peripheral blood of healthy donors by Ficoll-Hypaque density gradient centrifugation. The human cell line INA-6 represents a well-established model for multiple myeloma. The percentage of viable and apoptotic cell fractions was assessed using an annexin V-FITC/propidium iodide (PI) staining kit (Bender MedSystems, Vienna, Austria) according to manufacturer's instructions. In brief, cells were washed in PBS, incubated for 10 min in 100 ml binding buffer (10 mM HEPES/NaOH, pH 7.4, 140 mM NaCl, 2.5 mM CaCl2) containing 2.5 ml annexin V-FITC mix and 1 mg/ml propidium iodide (PI), subsequently diluted with 100 ml binding buffer and analyzed by flow cytometry (FACSCalibur/CELLQuest; Becton Dickinson, Heidelberg, Germany). Whereas viable cells are negative for both, annexin V-FITC and PI, early apoptotic cells show a positive annexin V-FITC staining, and cells in a late apoptotic stage which lose their membrane integrity additionally incorporate DNA-binding PI. To establish kill curves, concentrations of the tested compounds were titrated, and the measured viable cell fractions were further analyzed using the Prism Calculation Software (GraphPad Software Inc., La Jolla, USA).
In FIG. 2A Western blot analyses of caspases 9 and 3, and the caspase substrate PARP (upper panel), and viability analyses (lower panel) of INA-6 MM cells upon treatment with trans-7b for 24 hours are shown. INA-6 cells were either incubated with DMSO (as a solvent control) or with 0.6 μM of trans-7b, and additionally incubated either with DMSO or the pan-caspase inhibitor Z-VAD-FMK prior to analyses by Western or viability assessment (without Z-VAD-FMK co-treatment) by Annexin V/propidum iodide double staining. For Western analyses INA-6 cell pellets were dissolved in lysis buffer (20 mM HEPES (pH 7.9), 350 mM NaCl, 1 mM MgCl2, 0.5 mM EDTA, 0.1 mM EGTA, 1% NP40, 0.5 mM dithiothreiol (DTT), 1 mM Na3VO4, 0.1 mM PMSF and 1 μg/ml aprotinin). Lysates were cleared by centrifugation, measured by quantitative protein assay (Bio-Rad, München, Germany) and subjected to SDS gel electrophoresis. Proteins were transferred onto nitrocellulose membranes (Schleicher & Schuell, Dassel, Germany), incubated with antibodies specific for caspase 9, caspase 3 or PARP (Cell Signaling Technology, Frankfurt a.Main, Germany) according to standard procedures and visualized with secondary anti-rabbit horseradish peroxidase (HRP)-conjugated antibodies using an enhanced chemoluminescence detection system (ECL, Amersham, Freiburg, Germany). […] Annexin V/propidium iodide (PI) staining was performed using a fluorescein isothiocyanate (FITC) conjugated recombinant human annexin/propidium iodide kit (BenderMedSystems, Vienna, Austria) according to the manufacturer's instructions. INA-6 cells were washed in PBS, incubated for 15 minutes in 100 ml binding buffer (10 mM HEPES/NaOH, pH 7.4, 140 mM NaCl, 2.5 mM CaCl2) containing 2.5 mL annexin V-FITC mix and 1 mg/ml PI and analyzed by flow cytometry (FACSCalibur/CELLQuest; Becton Dickinson, Heidelberg, Germany). Whereas early apoptosis is characterized by positive annexin V-FITC staining reaction, cells in a late apoptotic stage lose their membrane integrity and additionally incorporate PI. Thus, the fraction of viable cells remains negative for both annexin V-FITC and PI. […] Based on the above described experiments also viability analyses of INA-6 in comparison with non-malignant PBMCs were performed choosing a longer incubation time (72 hours) as shown in FIG. 2B or C. Raw data of three independent experiments have been calculated to establish means, standard deviation and dose-effect curves of trans-7b.

INA-6 cells = assay: Viability of INA-6 cells under concomitant treatment with HSP90 inhibitor NVP-AUY922; assay type: cell-based, human; conditions: AUY922 7.5 nM plus trans-7b 3.5 μM, sublethal concentrations
Protocol: The heat shock protein HSP90, which critically cooperates with HSP72 and HSP73 to mediate a chaperone function for a multitude of proteins, is regarded as a reasonable therapeutic target in MM. […] Therefore, potential effects of a concomitant treatment of trans-7b with the HSP90 inhibitor NVP-AUY922 on viability of INA-6 cells were analyzed. INA-6 cells were incubated either with DMSO (as a solvent control), sublethal concentrations of AUY922 (7.5 nM) or trans-7b (3.5 μM) or with a combination of both. Viability was measured by Annexin V-FITC/propidium iodide double staining (BenderMedSystems, Vienna, Austria) according to the manufacturer's instructions. Cells were washed in PBS, incubated for 15 minutes in 100 ml binding buffer (10 mM HEPES/NaOH, pH 7.4, 140 mM NaCl, 2.5 mM CaCl2) containing 2.5 mL annexin V-FITC mix and 1 mg/ml PI and analyzed by flow cytometry (FACSCalibur/CELLQuest; Becton Dickinson, Heidelberg, Germany). Whereas early apoptosis is characterized by positive annexin V-FITC staining reaction, cells in a late apoptotic stage lose their membrane integrity and additionally incorporate PI. […] Raw data of three independent measurements were set in relation to their respective DMSO controls, and means and standard deviations were calculated using the Graphpad Prism software (Graphpad, La Jolla, USA).

`COc1ccc(C2C(C(=O)Nc3cccc(C)n3)c3ccccc3C(=O)N2c2ccccc2)cc1` (stereo not drawn) [trans-7b, trans-3-(4-Methoxyphenyl)-N-(6-methylpyridin-2-yl)-1-oxo-2-phenyl-1,2,3,4-tetrahydroisoquinoline-4-carboxamide] was tested, and the “viability of INA-6 cells in comparison with the DMSO control (100%)” value (INA-6; 0.6 μM, 24 hours, Annexin V/propidium iodide) was “drastically decreased”, the “sensitivity of INA-6 tumor cells (viability, dose-effect curves)” value (INA-6; 72 hours, three independent experiments) was “highly sensitive (in a low micromolar range)” and the EC50 (INA-6; Homo sapiens, INA-6, 72 h, INA-6 multiple myeloma cells, 72 hours of treatment, viable cell fraction, mean of at least three determinations, read-out: INA-6 EC50(±sdv)) was 410 nM. For the same compound, the “effect on the apoptotic effect of the HSP90 inhibitor NVP-AUY922 (viability)” value (INA-6 cells) was “strongly enhanced”.
